Measured values taken from US20060193902A1, “Pharmaceutical compositions containing active agents having a lactone group and transition metal ions” (Celator Pharmaceuticals, Inc., priority 2003, published 2006).

How the values were obtained:
DNA = settings: copper(II) complex, long-wave UV light; CuSO4 and drug 10 μM; cited from earlier work
[1] = Lactone/carboxy ratio of irinotecan in buffers with or without copper sulphate, by HPLC (Example 2); assay type: physicochemical; settings: presence of CuSO4, pH 7.5
[2] = Thin layer chromatography for ring closed lactone and ring open carboxylate forms of irinotecan (Example 5); assay type: physicochemical; settings: HEPES buffered saline, acidic conditions, 30 minutes; lactone form
Method: Three sets of liposomal formulations of irinotecan were prepared as previously described. […] Any unencapsulated irinotecan was removed by column chromatography. […] The third formulation (B) contained irinotecan and floxuridine in the final composition. In this formulation the liposomes were prepared in the presence of floxuridine and then unencapsulated drug was removed by chromatography. […] In all cases the external pH was adjusted to match the internal liposomal pH prior to irinotecan loading.
Liposomal formulations of irinotecan were first analyzed for ring closed lactone and ring open carboxylate forms of the drug by thin layer chromatography. A set of standards were first prepared and used as a reference for the liposomal formulations. […] The TLC plates were dried overnight at room temperature and then run in a second solvent system composed of butanol:acetic acid:water:acetone (4:2:1:1). […] As the pH of the solution increased, the presence of the carboxylate band appears.
The plates were run in the same solvent systems and visualized by UV light.

[3] = 3 hours of incubation in human blood; cited from earlier work

| Compound | DNA cleavage (DNA) [%] | irinotecan remaining in the lactone form ([1]; 4 hours) [%] | irinotecan present in the ring-closed, lactone form ([1]; 24 hours) [%] | irinotecan species seen by TLC in aqueous standards [2] | lactone ring present [3] [%] |
| --- | --- | --- | --- | --- | --- |
| CC[C@@]1(O)C(=O)OCc2c1cc1n(c2=O)Cc2cc3cc(O)ccc3nc2-1 [10-hydroxycamptothecin] | 1.7 |  |  |  |  |
| CC[C@H]1C(=O)OCc2c1cc1n(c2=O)Cc2cc3ccccc3nc2-1 [20-deoxycamptothecin] | 28 |  |  |  |  |
| CCc1c2c(nc3ccc(OC(=O)N4CCC(N5CCCCC5)CC4)cc13)-c1cc3c(c(=O)n1C2)COC(=O)[C@]3(O)CC [Irinotecan, irinotecan] |  | 56.39 | 58.66 | dominant species |  |
| CC[C@@]1(O)C(=O)OCc2c1cc1n(c2=O)Cc2cc3ccccc3nc2-1 [camptothecin] | 51 |  |  |  | 5 |
